Test results: patent US20230066648A1, “METHOD FOR INDUCING TRANSDIFFERENTIATION OF SOMATIC CELLS INTO MAMMARY EPITHELIAL CELLS IN VITRO USING SMALL MOLECULE COMPOUND” (GUANGXI UNIVERSITY, priority 2019, published 2023)
“Also recorded” adds a separate entry of the source.

System: ear margin fibroblasts (GEFs) of goat
Assay: induction of transdifferentiation of fibroblasts into mammary epithelial cells with induction medium, cell morphology
Assay type: cell-based
Settings: for transdifferentiation of fibroblasts into mammary epithelial cells with the inhibitor alone: 8 d, 10 μM SB431542, 5 μM SB525334, 1 μM LDN193189 induction medium alone
Method: 1. The ear margin fibroblasts (GEFs) of goat were isolated and cultured by a tissue adherence method to provide cell materials for subsequent induction.
2. The fibroblasts were inoculated into a 60 mm cell culture dish at a density of 5×10^5, and after culturing for 8 h to 24 h in the high-glucose DMEM+10% FBS (volume percentage), the induction medium BFRTV was replaced, and then cultured at 37° C. for 8 d in a 5% CO2 incubator, where the medium was changed every two days.
3. When cultured to the 8th day, CiMECs can be subcultured and inoculated onto a plate pretreated with Matrix (a volume ratio of Matrix to gelatin was 1:50), and then cultured in a mammary epithelial cell medium, when the cell confluence reached about 90%, the cells were subcultured or frozen for subsequent detection.
Taking the ear margin fibroblasts of Guanzhong dairy goat as an experimental object, the concentration of five small molecule compounds currently used was adjusted, and the concentration of BFRTV was adjusted as a whole under the condition that the basal solution remained unchanged.

SMILES | transdifferentiation of fibroblasts into mammary epithelial cells with the inhibitor alone | induction of mammary epithelial cells with Repsox alone (R induction medium) (R induction medium, no other small molecule)
c1ccc2c(-c3cnn4cc(-c5ccc(N6CCNCC6)cc5)cnc34)ccnc2c1 [LDN193189] | the fibroblasts can be induced into mammary epithelial cells; also recorded: could still induce the transdifferentiation of fibroblasts into mammary epithelial cells | 
Cc1cccc(-c2[nH]ncc2-c2ccc3ncccc3n2)n1 [Repsox] |  | mammary epithelial cells (CiMECs) similar to those by BFRTV induction medium were obtained
NC(=O)c1ccc(-c2nc(-c3ccc4c(c3)OCO4)c(-c3ccccn3)[nH]2)cc1 [SB431542] | the fibroblasts can be induced into mammary epithelial cells; also recorded: could still induce the transdifferentiation of fibroblasts into mammary epithelial cells | 
Cc1cccc(-c2[nH]c(C(C)(C)C)nc2-c2ccc3nccnc3c2)n1 [SB525334] | the fibroblasts can be induced into mammary epithelial cells; also recorded: could still induce the transdifferentiation of fibroblasts into mammary epithelial cells | 
